Holding throughout (assay type): biochemical
Assay [1] has as its target PI3K (p110β/p85α) (Homo sapiens, UniProt P42338). As to the kind of experiment: PI3Kβ assay (ADP-Glo Kinase Assay). The note with it: read-out: Enzyme activity IC50 PI3Kβ. For orientation: In ADP-Glo the light output rises with the ADP produced.
Assay [2] deals with PI3K (p110γ) (Homo sapiens, UniProt P48736). The assay can be described thus: PI3Kγ assay (ADP-Glo Kinase Assay). The note with it: recombinant enzyme; IC50 (nM) or max inhibition (%) at 0.5 μM.
Chain of PI3K (p110γ) (P48736 whole entry): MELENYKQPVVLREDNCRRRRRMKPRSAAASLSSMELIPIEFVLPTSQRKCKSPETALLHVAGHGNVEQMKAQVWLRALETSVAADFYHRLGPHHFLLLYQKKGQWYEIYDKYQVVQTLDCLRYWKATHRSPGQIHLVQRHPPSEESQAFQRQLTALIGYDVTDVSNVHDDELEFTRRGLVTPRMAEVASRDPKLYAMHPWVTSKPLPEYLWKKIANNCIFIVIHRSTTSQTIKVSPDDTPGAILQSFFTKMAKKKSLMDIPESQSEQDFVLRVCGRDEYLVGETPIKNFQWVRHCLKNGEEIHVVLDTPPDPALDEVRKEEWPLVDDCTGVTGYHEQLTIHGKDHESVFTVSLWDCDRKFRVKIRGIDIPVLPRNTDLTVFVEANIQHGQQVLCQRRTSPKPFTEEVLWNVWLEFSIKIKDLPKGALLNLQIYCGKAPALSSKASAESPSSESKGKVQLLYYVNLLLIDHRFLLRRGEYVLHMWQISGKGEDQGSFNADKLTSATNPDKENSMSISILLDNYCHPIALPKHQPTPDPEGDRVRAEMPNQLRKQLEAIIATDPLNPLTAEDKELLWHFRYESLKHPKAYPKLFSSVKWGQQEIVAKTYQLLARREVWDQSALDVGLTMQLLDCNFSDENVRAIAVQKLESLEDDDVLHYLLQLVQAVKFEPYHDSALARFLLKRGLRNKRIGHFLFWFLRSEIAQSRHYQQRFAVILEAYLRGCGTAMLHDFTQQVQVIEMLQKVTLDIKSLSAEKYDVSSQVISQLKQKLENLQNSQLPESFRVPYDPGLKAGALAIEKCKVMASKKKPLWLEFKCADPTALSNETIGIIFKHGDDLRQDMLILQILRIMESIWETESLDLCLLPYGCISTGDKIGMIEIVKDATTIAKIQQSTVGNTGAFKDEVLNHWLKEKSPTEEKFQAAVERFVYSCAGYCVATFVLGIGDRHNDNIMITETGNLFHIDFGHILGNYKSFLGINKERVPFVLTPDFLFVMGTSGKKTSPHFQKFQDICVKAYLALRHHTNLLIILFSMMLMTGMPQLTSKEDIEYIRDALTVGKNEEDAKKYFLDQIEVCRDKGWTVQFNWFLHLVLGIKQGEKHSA
Assay [3] addresses PI3K (p110α/p85α) (Homo sapiens, UniProt P42336). The assay can be described thus: PI3Kα assay (ADP-Glo Kinase Assay). The note with it: recombinant enzyme; IC50 (nM) or max inhibition (%) at 0.5 μM.
For assay [4], the target named is PI3K (p110δ/p85α) (Homo sapiens, UniProt O00329). The assay can be described thus: PI3Kδ assay (ADP-Glo Kinase Assay). As to conditions: recombinant enzyme; IC50 (nM) or max inhibition (%) at 0.5 μM. The procedure, abridged: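 Recombinant p110δ/p85α with lipid substrate and serially diluted compound, 0.5 hr RT preincubation; ATP-started reaction ran 1 hr at RT. ADP formed read by ADP-Glo luminescence; IC50 from four-parameter logistic fit of residual activity.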
Chain of PI3K (p110δ/p85α) (O00329 whole entry): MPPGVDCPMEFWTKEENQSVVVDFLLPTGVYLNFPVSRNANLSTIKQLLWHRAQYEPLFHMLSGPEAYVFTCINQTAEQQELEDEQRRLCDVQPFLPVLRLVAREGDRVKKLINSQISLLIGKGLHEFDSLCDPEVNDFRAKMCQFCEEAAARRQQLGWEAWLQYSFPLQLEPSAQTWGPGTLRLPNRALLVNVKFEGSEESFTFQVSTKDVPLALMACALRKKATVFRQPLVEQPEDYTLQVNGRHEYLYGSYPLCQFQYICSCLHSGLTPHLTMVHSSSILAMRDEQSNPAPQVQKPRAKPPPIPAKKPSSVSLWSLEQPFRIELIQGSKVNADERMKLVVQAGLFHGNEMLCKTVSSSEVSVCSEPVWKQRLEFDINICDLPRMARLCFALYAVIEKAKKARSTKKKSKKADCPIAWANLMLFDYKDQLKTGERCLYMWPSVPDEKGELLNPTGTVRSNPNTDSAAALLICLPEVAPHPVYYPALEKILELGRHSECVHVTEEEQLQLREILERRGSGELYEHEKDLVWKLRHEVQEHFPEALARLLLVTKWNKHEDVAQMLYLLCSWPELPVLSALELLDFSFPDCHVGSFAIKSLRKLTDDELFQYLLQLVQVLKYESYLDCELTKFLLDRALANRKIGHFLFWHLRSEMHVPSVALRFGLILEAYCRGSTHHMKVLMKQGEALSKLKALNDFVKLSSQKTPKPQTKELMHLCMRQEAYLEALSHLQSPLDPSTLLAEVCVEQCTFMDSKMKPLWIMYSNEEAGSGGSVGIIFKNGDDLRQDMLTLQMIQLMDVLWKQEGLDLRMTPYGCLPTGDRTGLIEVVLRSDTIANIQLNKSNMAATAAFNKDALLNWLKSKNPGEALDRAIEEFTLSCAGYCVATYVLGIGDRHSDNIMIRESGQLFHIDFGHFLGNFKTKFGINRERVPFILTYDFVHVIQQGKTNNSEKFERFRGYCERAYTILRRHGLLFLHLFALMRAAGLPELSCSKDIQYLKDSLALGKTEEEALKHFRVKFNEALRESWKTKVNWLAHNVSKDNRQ
Chain of PI3K (p110δ/p85α) (P27986 whole entry partner): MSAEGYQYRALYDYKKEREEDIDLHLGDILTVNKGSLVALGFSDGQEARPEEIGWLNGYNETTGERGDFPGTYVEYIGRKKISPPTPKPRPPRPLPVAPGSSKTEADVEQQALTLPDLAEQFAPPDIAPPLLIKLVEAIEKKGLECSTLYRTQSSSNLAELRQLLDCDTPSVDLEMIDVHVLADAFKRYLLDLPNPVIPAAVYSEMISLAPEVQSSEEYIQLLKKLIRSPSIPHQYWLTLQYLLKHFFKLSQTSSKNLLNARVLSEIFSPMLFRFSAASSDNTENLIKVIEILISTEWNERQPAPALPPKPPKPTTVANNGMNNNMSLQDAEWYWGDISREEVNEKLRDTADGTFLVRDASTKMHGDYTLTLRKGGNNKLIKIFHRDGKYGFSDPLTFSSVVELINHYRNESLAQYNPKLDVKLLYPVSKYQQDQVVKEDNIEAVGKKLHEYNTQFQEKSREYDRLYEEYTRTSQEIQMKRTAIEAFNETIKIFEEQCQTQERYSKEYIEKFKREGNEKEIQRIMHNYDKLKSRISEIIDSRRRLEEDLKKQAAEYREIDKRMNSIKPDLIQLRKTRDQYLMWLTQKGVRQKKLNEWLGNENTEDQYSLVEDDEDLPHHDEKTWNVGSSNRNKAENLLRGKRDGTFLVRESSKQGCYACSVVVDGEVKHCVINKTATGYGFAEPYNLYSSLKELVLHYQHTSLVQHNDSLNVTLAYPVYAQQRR

IC50 data for 8 compounds are collected here from US11905294B2, “Imidazo[1,5-a]pyrazine derivatives as PI3Kδ inhibitors” (BEIGENE, LTD., priority 2017, dated 2024).

Chain of PI3K (p110β/p85α) (P42338 whole entry): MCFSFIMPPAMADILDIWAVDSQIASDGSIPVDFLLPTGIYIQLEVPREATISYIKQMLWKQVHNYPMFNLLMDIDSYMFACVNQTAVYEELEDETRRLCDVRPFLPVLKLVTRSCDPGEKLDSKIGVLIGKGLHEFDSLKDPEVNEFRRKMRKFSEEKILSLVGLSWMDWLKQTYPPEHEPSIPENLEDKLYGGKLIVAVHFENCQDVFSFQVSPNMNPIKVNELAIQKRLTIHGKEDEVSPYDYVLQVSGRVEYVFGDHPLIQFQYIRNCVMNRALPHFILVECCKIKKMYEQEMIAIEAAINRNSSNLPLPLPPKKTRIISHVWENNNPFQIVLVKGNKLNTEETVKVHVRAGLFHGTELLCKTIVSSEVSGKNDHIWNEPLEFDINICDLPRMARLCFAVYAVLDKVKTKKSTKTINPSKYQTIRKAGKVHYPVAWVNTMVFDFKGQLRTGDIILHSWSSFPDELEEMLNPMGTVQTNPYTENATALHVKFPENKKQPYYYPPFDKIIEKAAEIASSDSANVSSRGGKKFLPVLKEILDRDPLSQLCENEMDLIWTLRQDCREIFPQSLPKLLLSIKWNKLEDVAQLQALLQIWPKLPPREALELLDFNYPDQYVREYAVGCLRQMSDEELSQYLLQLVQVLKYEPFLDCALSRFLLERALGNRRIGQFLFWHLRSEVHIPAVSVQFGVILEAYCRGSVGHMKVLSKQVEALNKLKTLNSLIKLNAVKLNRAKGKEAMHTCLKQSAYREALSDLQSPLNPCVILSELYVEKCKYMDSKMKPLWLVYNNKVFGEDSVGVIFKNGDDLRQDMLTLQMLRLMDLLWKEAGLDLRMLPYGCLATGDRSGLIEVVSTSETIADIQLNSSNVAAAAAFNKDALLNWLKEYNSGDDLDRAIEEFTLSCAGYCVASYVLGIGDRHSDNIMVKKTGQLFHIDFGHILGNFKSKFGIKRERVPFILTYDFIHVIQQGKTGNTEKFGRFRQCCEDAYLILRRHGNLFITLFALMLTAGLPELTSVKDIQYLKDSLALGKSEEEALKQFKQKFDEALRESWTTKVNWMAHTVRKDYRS
Chain of PI3K (p110β/p85α) (P27986 whole entry partner): as the sequence (P27986 whole entry partner) above
Chain of PI3K (p110α/p85α) (P42336 whole entry): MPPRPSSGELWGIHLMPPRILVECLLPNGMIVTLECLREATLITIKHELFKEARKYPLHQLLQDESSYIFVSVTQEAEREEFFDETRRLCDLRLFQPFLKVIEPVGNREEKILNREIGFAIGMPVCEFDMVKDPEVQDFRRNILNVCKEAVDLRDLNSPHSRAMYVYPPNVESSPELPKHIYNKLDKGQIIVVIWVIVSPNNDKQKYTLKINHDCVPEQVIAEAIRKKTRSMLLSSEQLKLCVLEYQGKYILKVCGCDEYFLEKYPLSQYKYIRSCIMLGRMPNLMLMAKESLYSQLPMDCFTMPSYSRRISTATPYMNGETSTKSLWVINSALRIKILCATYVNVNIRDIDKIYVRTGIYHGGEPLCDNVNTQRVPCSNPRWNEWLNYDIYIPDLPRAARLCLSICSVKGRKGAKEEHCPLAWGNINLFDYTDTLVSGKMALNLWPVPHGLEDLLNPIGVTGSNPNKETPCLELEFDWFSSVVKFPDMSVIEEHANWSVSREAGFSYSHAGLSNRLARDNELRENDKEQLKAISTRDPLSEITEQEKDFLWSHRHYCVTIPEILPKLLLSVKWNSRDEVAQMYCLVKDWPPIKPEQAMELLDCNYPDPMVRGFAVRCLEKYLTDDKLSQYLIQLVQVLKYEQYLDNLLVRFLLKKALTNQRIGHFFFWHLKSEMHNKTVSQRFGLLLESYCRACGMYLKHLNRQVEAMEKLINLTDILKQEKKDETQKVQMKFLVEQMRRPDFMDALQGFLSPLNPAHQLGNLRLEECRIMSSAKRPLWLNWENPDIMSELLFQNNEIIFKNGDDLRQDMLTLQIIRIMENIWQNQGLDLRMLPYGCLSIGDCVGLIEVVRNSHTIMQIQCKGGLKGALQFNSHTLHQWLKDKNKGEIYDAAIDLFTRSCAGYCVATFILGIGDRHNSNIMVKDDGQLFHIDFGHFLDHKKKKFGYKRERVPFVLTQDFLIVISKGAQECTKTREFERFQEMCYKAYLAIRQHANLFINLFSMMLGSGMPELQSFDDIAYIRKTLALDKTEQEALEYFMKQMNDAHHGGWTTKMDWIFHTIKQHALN
Chain of PI3K (p110α/p85α) (P27986 whole entry partner): as the sequence (P27986 whole entry partner) above

As for `Cc1nc([C@@H](C)c2cc(Cl)c(F)c(C(=O)N[C@@H]3CCC[C@H]3O)c2OC(C)C)n2ccnc(N)c12` [Compound 58, 3-((S)-1-(8-amino-1-methylimidazo[1,5-a]pyrazin-3-yl)ethyl)-5-chloro-6-fluoro-N-((1R,2R)-2-hydroxycyclopentyl)-2-isopropoxybenzamide], the IC50 was 16 µM in assay [1], 2800 nM in assay [2], 14000 nM in assay [3] and 2.2 nM in assay [4].
The like results for `Cc1nc([C@@H](C)c2cc(Cl)c(F)c(C(=O)N[C@@H](C)c3ccnc(C(F)(F)F)c3)c2OC(C)C)n2ccnc(N)c12` [Compound 59A, 3-((S)-1-(8-amino-1-methylimidazo[1,5-a]pyrazin-3-yl)ethyl)-5-chloro-6-fluoro-2-isopropoxy-N-((S)-1-(2-(trifluoromethyl)pyridin-4-yl)ethyl)benzamide] were, in that order, 14 µM, 1200 nM, 8300 nM and 2.1 nM.
For `Cc1nc([C@@H](C)c2cc(Cl)c(F)c(C(=O)N[C@H](C)c3ccnc(C(F)(F)F)c3)c2OC(C)C)n2ccnc(N)c12` [Compound 59B, 3((S)-1-(8-amino-1-methylimidazo[1,5-a]pyrazin-3-yl)ethyl)-5-chloro-6-fluoro-2-isopropoxy-N-((R)-1-(2-(trifluoromethyl)pyridin-4-yl)ethyl)benzamide], in that order: 26 µM, 2800 nM, 14000 nM and 1.5 nM.
Turning to `Cc1nc([C@@H](C)c2cc(Cl)c(F)c(C(=O)N[C@H]3C[C@H](O)C3)c2OC(C)C)n2ccnc(N)c12` [Compound 61, 3-((S)-1-(8-amino-1-methylimidazo[1,5-a]pyrazin-3-yl)ethyl)-5-chloro-6-fluoro-N-((trans)-3-hydroxycyclobutyl)-2-isopropoxybenzamide], the IC50 in assay [1] turned out to be 12 µM; in assay [2], 4500 nM; in assay [3], 21000 nM; in assay [4], 1.4 nM.
Regarding `Cc1nc([C@@H](C)c2cc(Cl)c(F)c(C(=O)N[C@H]3CC[C@@H](O)CC3)c2OC(C)C)n2ccnc(N)c12` [Compound 62, 3((S)-1-(8-amino-1-methylimidazo[1,5-a]pyrazin-3-yl)ethyl)-5-chloro-6-fluoro-N-((cis)-4-hydroxycyclohexyl)-2-isopropoxybenzamide], the 50% inhibitory concentration (IC50) in assay [1] was 29 µM; in assay [2], 9000 nM; in assay [3] it was 17000 nM; in assay [4], 1.4 nM.
The like results for `Cc1nc([C@@H](C)c2cc(Cl)c(F)c(C(=O)N[C@H]3C[C@@H](O)C3)c2OC(C)C)n2ccnc(N)c12` [Compound 63, 3-((S)-1-(8-amino-1-methylimidazo[1,5-a]pyrazin-3-yl)ethyl)-5-chloro-6-fluoro-N-((cis)-3-hydroxycyclobutyl)-2-isopropoxybenzamide] were, in that order, 7.4 µM, 4200 nM, 38000 nM and 1.1 nM.
For `Cc1nc([C@@H](C)c2cc(Cl)c(F)c(C(=O)N3CCC4(CC3)COC4)c2OC(C)C)n2ccnc(N)c12` [Compound 64, (S)-(3-(1-(8-amino-1-methylimidazo[1,5-a]pyrazin-3-yl)ethyl)-5-chloro-6-fluoro-2-isopropoxyphenyl)(2-oxa-7-azaspiro[3.5]nonan-7-yl)methanone], in that order: over 50 µM, 14000 nM, over 50000 nM and 1.6 nM.
The like results for `Cc1nc([C@@H](C)c2cc(Cl)c(F)c(C(=O)NCC3(O)CC3)c2OC(C)C)n2ccnc(N)c12` [Compound 66, (S)-3(1-(8-amino-1-methylimidazo[1,5-a]pyrazin-3-yl)ethyl)-5-chloro-6-fluoro-N-((1-hydroxycyclopropyl)methyl)-2-isopropoxybenzamide] were, in that order, 12 µM, 3400 nM, 14000 nM and 2.2 nM.

The IC50 is the concentration at which inhibition is half-maximal.
